Measured values taken from US20080021004A1, “Sapogenin derivatives and their use in the treatment of cognitive dysfunction” (PHYTOPHARM PLC, priority 1999, published 2008).

Test system: m2 receptors on CHO cells
Assay: Expression of m2 receptors on transfected CHO cells (tritiated QNB binding)
Format: cell-based, human
Conditions: DMSO control
Description: Sapogenin derivatives of the present invention have also been tested for activity in a number of in-vitro assays. The assays/experiments that were considered of key importance in determining possible activity in the elevation of membrane bound receptor numbers were as follows: • Chinese hamster ovary (CHO) cells transfected with the DNA fragment coding for a muscarinic receptor. The cell line used for the majority of the experiments was a cell line expressing the m2 receptor.
The effects of various compounds on the expression of m2 receptors on CHO cells transfected with DNA for the m2 receptor were investigated. Receptor numbers were assayed using tritiated QNB binding and subtracting non-specific binding. Compounds were dissolved in DMSO and DMSO was used as a control. Compounds were tested at a range of final concentrations. Compounds were also tested in the presence and absence of tamoxifen to try to distinguish an oestrogen receptor mediated mechanism.
Compounds are active when the effect on receptor expression given as a percentage increase compared to control is more than 15%.

Row | SMILES | Activity (effect on expression of m2 receptors, percentage increase compared to control) (molar concentration 10^−5) | Activity (effect on expression of m2 receptors, percentage increase compared to control) (molar concentration 10^−6)
1 | CC1CCC2(OC1)OC1CC3C4CC[C@@H]5CC(O)CC[C@]5(C)C4C(=O)C[C@]3(C)C1C2C (stereo partly shown) | Not Active | 
2 | CC1C(=O)OC2CC3C4CC[C@H]5CC(O)CC[C@]5(C)C4CC[C@]3(C)C21 (stereo partly shown) | Not Active | 
3 | CC1CCC2(OC1)OC1CC3C4CC=C5CC(O)C[C@@H](O)[C@]5(C)C4CC[C@]3(C)C1C2C (stereo partly shown) | Not Active Not Active | Not Active Not Active
4 | CC1CCC2(OC1)OC1CC3C4CC=C5CC(O)CC[C@]5(C)C4CC[C@]3(C)C1C2C (stereo partly shown) | Not Active Not Active | Not Active Not Active
5 | CC1CCC2(OC1)OC1CC3C4CC[C@H]5CC(O)CC[C@]5(C)C4CC[C@]3(C)C1C2C (stereo partly shown) | Not Active Not Active | Not Active Not Active
6 | CC1CCC2(OC1)OC1CC3C4CC[C@@H]5CC(O)[C@H](O)C[C@]5(C)C4CC[C@]3(C)C1C2C (stereo partly shown) | Not Active | 
7 | CC(CO)CCCC(C)C1C(O)CC2C3CC[C@H]4CC(O)CC[C@]4(C)C3CC[C@@]21C (stereo partly shown) | Active | 
